Experimental data as given in patent EP0364581A1, “METHOD OF STERILIZING PLANT POLLEN” (VSESOJUZNY NAUCHNO-ISSLEDOVATELSKY INST. SELSKOKHOZYAISTV. …, priority 1988, dated 1989).

Tests used:
Assay in all cases: field test of gametocidal activity (sterilisation of anthers)
[1] = tested on: Winterweizens Sorte Polesskaya-70; assay type: in vivo, Winterweizen; conditions: V. Periode, 2%ige wäßrige Emulsion, 16 kg/ha; for Prozentsatz des Ansetzens bei freier Bestäubung: control = 100
Excerpt: (§1) Die gametozide Aktivität der erfindungsgemäßen Sterilisationsmittel war in Feldversuch in verschiedenen bodenklimatischen Zonen mit Teilstücken von 10 m^2 Größe in drei-- bis viermaliger Wiederholung nachgewiesen. Jedes Sterilisationsmittel wurde mindestens 5 Jahre lang geprüft.
(§2) Die Entwicklung der Perioden der Organogenese wird zytologisch überwacht. Die Behandlung von Pflanzen mit dem Sterilisationsmittel erfolgt am Anfang der fünften Periode der Organogenese nach Kupermann.
(§3) Mit dem Ahrenschieben verwirklicht man die Isolierung von Hauptähren und anderen Stockwerken in Pergamentbeuteln. Bei Weizen und Tritikale werden Einzelisolatoren verwendet. Bei Roggen schließt man je 1 Ähre von 5 bis 7 verschiedenen nebeneinander befindlichen Pflanzen in einen gemeinsamen Isolator ein. Bei Hirse wird jede Rispe getrennt isoliert. Der Sterilitätsprozentsatz (X) für Weizen, Roggen, Tritikale und Hirse wird nach der Formel [formula]
(§4) Samen von unbehandelten Kontrollpflanzen ermittelt.
(§5) Die Kornzahl in nicht isolierten Ähren von Kontrollpflanzen wird bedingt für 100% Ansetzen bei freier Bestäubung angenommen.
(§6) Um zuverlässige Angaben zu erhalten, verwendet man 20 bis 25 Isolatoren jeder Wiederholung für Weizen und Tritikale, 10 bis 15 Isolatoren jeder Wiederholung für Roggen und Hirse.
Pflanzen des Winterweizens Sorte Polesskaya-70 behandelt man in der V. Periode der Organogenese durch Zerstäubund einer 2%igen wäßrigen Emulsion von Phthalsäurediäthylester, Phthalsäurediallylester, Phthalsäuredihexylester, Kaliumsalz der 2-Methyl-3-zyklohexenkarbonsäure, Ammoniumsalz der 2-Methyl-3-zyklohexenkarbonsäure mit Hilfe einer Rückenspritze. Die Emulsion enthält 0,01 Masse% Tetrahydrofuran und 0,1 Masse% C12 -C14 -Kalziumalkylbenzolsulfonat.
Der Verbrauch an Präparat beträgt 16 kg/ha. Als Kontrolle dienen Pflanzen, behandelt mit dem Verdünner ohne Sterilisationsmittel.

[2] = tested on: Winterweizens Sorte Kharkovskaya 81; assay type: in vivo, Winterweizen; conditions: V. und VI. Periode, 2%ige wäßrige Emulsion, 12 kg/ha
Excerpt: as §1, §2, §3, §4, §5, §6
Pflanzen des Winterweizens Sorte Kharkovskaya 81 werden in der V. und VI. Periode der Organogenese (nach Kupermann) mit einer 2%igen wäßrigen Emulsion von Natriumsalz der 2-Methyl-3-zyklohexenkarbonsäure, Phthalsäuredihexylester, Ammoniumsalz der 2-Methyl-3-zyklohexenkarbon- säure, Phthalsäuredibutylester, Phthalsäurediallylester behandelt. Die Emulsion enthält 0,01 Masse% Dodezylsulfat und 0,1 Masse% C12-C14 -Kalziumalkylbenzolsulfonat. Der Verbrauch an Präparat beträgt 12 kg/ha.
Die Prüfergebnisse sind in der Tabelle 4 angeführt. Als Kontrolle dienten Pflanzen, behandelt ähnlich wie in Beispiel 1.

[3] = tested on: diploidem Roggen Sorte Kharkovskaya 55; assay type: in vivo; conditions: V. und VI. Periode, 1%ige wäßrige Emulsion, 6 kp/ha; for Prozentsatz des Ansetzens der Körner bei freier Bestäubung: control = 100
Excerpt: as §1, §2, §3, §4, §5, §6
Pflanzen von diploidem Roggen Sorte Kharkovskaya 55 werden in der V. und VI. Periode der Organogenese (nach Kupermann) mit einer 1%igen wäßrigen Emulsion von Phthalsäuredibutylester, Phthalsäurediisobutylester, Phthalsäurediallylester, Phthalsäuredihexylester, 2-Methyl-3-zyklohexen- karbonsäuremethylester, Natriumsalz der 2-Methyl-3-zyklohex- enkarbonsäure behandelt. Die Emulsion enthält 0,01 Masse% Dimethylformamid und 0,1 Masse% C12C14-Kalziumalkylbenzolsulfonat.
Der Verbrauch an Präparat beträgt 6 kp/ha. Als Kontrolle dienen Pflanzen, benandelt mit einem Verdünner ohne Sterilisationsmittel.

[4] = tested on: diploidem Roggen Sorte Voskhod 2; assay type: in vivo; conditions: V. Periode, 1%ige wäßrige Emulsion, 10 kg/ha; for Prozentsatz des Ansetzens der Körner bei freier Bestäubung: control = 100
Excerpt: as §1, §2, §3, §4, §5, §6
Pflanzen von diploidem Roggen Sorte Voskhod 2 werden in der V. Periode der Organogenese (nach Kupermann) mit einer l%igen wäßrigen Emulsion von Phthalsäurediäthylester, Phthalsaurediisobutylester, Kaliumsalz der 2-Methyl-3-zyklohexen- karbonsäure, Ammoniumsalz der 2-Methyl-3-zyklohexenkarbon- säure, 2-Methyl-3-zyklohexenkarbonsäuremethylester, Phthalsaurediallylester behandelt.
Die Emulsion enthält 0,01 Masse% Dodezylsulfat und 0,1 Masse% C12-C14-Kalziumalkylbenzolsulfonat. Der Verbrauch an Präparat beträgt 10 kg/ha, Als Kontrolle dienen Pflanzen, behandelt mit einem Verdünner ohne Sterilisationsmittel.

[5] = tested on: Hirse Sorte K-9693 Kormovoe I; assay type: in vivo; conditions: V. Periode, 1%ige wäßrige Emulsion, 8 kg/ha; for Prozentsatz des Ansetzens der Körner bei freier Bestäubung: control = 100
Excerpt: as §1, §2, §3, §4, §5, §6
Pflanzen der Hirse Sorte K-9693 Kormovoe I werden in der V. Periode der Organogenese (nach Kupermann) mit einer 1%igen wäßrigen Emulsion von Ammoniumsalz der 2-Methyl-3-zyklo- nexenkarbonsäure, Phthalsäuredipropylester, Phthalsäuredibutylester, Phthalsäurediisobutylester, 2-Methyl-3-zyklo- hexenkarbonsäuremethylester, Phthalsäuredihexylester behandelt. Die Emulsion enthält 0,01 Masse% Dodezylsulfat und 0,1 Masse% C12-C14-Kalziumalkylbenzolsulfonat. Der Verbrauch an Präparat beträgt 8 kg/ha. Als Kontrolle dienen Pflanzen, behandelt mit einem Verdünner ohne Sterilisationsmittel. Die Prüfergebnisse sind in der Tabelle 18 angeführt. […] Periode der Organogenese erhalten.

## CCOC(=O)c1ccccc1C(=O)OCC [Beispiel 9, Phthalsäurediäthylester]
[1]
  Kornzahl der Ähre bei freier Bestäubung: 36,8
  Kornzahl der Ähre im Isolator: 0,2
  Prozentsatz der Sterilität: 99,4%
  Prozentsatz des Ansetzens bei freier Bestäubung: 97,4%

## C=CCOC(=O)c1ccccc1C(=O)OCC=C [Beispiel 10, Phthalsäurediallylester]
[1]
  Kornzahl der Ähre bei freier Bestäubung: 35,6
  Kornzahl der Ähre im Isolator: 6,2
  Prozentsatz der Sterilität: 82,0%
  Prozentsatz des Ansetzens bei freier Bestäubung: 94,1%

## CCCCCCOC(=O)c1ccccc1C(=O)OCCCCCC [Beispiel 11, Phthalsäuredihexylester]
[1]
  Kornzahl der Ähre bei freier Bestäubung: 36,0
  Kornzahl der Ähre im Isolator: 0,1
  Prozentsatz der Sterilität: 99,7%
  Prozentsatz des Ansetzens bei freier Bestäubung: 95,2%

## CC1C=CCCC1C(=O)[O-].[K+] (stereo not drawn) [Beispiel 12, Kaliumsalz der 2-Methyl-3-zyklohexenkarbonsäure]
[1]
  Kornzahl der Ähre bei freier Bestäubung: 35,8
  Kornzahl der Ähre im Isolator: 0,0
  Prozentsatz der Sterilität: 100,0%
  Prozentsatz des Ansetzens bei freier Bestäubung: 94,7%

## CC1C=CCCC1C(=O)O.N (stereo not drawn) [Beispiel 13, Ammoniumsalz der 2-Methyl-3-zyklohexenkarbonsäure]
[1]
  Kornzahl der Ähre bei freier Bestäubung: 36,9
  Kornzahl der Ähre im Isolator: 3,7
  Prozentsatz der Sterilität: 89,2%
  Prozentsatz des Ansetzens bei freier Bestäubung: 97,6%

## CC1C=CCCC1C(=O)[O-].[Na+] (stereo not drawn) [Beispiel 18, Natriumsalz der 2-Methyl-3-zyklohexenkarbonsäure]
[2]
  Kornzahl der Ähre bei freier Bestäubung: 32,6
  Kornzahl der Ähre im Isolator: 0,2
  Prozentsatz der Sterilität: 99,4%
[2]; control = 100
  Prozentsatz des Ansetzens der Körner bei freier Bestäubung: 96,2%

## CCCCOC(=O)c1ccccc1C(=O)OCCCC [Beispiel 68, Phthalsäuredibutylester]
[3]
  Kornzahl der Ähre bei freier Bestäubung: 48,6
  Kornzahl der Ähre im Isolator: 0,0
  Prozentsatz der Sterilität: 100,0%
  Prozentsatz des Ansetzens der Körner bei freier Bestäubung: 92,7%

## CC(C)COC(=O)c1ccccc1C(=O)OCC(C)C [Beispiel 69, Phthalsäurediisobutylester]
[3]
  Kornzahl der Ähre bei freier Bestäubung: 50,8
  Kornzahl der Ähre im Isolator: 0,2
  Prozentsatz der Sterilität: 99,6%
  Prozentsatz des Ansetzens der Körner bei freier Bestäubung: 96,9%

## C=CCOC(=O)c1ccccc1C(=O)OCC=C [Beispiel 70, Phthalsäurediallylester]
[3]
  Kornzahl der Ähre bei freier Bestäubung: 51,2
  Kornzahl der Ähre im Isolator: 0,1
  Prozentsatz der Sterilität: 99,8%
  Prozentsatz des Ansetzens der Körner bei freier Bestäubung: 97,7%

## CCCCCCOC(=O)c1ccccc1C(=O)OCCCCCC [Beispiel 71, Phthalsäuredihexylester]
[3]
  Kornzahl der Ähre bei freier Bestäubung: 49,7
  Kornzahl der Ähre im Isolator: 0,0
  Prozentsatz der Sterilität: 100,0%
  Prozentsatz des Ansetzens der Körner bei freier Bestäubung: 94,8%

## COC(=O)C1CCC=CC1C (stereo not drawn) [Beispiel 72, 2-Methyl-3-zyklohexen-karbonsäuremethylester]
[3]
  Kornzahl der Ähre bei freier Bestäubung: 48,0
  Kornzahl der Ähre im Isolator: 0,0
  Prozentsatz der Sterilität: 100,0%
  Prozentsatz des Ansetzens der Körner bei freier Bestäubung: 91,6%

## CC1C=CCCC1C(=O)O (stereo not drawn) [Beispiel 73, Natriumsalz der 2-Methyl-3-zyklohex-enkarbonsäure]
[3]
  Kornzahl der Ähre bei freier Bestäubung: 50,1
  Kornzahl der Ähre im Isolator: 0,0
  Prozentsatz der Sterilität: 100,0%
  Prozentsatz des Ansetzens der Körner bei freier Bestäubung: 95,6%

## CCOC(=O)c1ccccc1C(=O)OCC [Beispiel 76, Phthalsäurediäthylester]
[4]
  Kornzahl der Ähre bei freier Bestäubung: 53,4
  Kornzahl der Ähre im Isolator: 0,2
  Prozentsatz der Sterilität: 99,6%
  Prozentsatz des Ansetzens der Körner bei freier Bestäubung: 97,8%

## CC(C)COC(=O)c1ccccc1C(=O)OCC(C)C [Beispiel 77, Phthalsaurediisobutylester]
[4]
  Kornzahl der Ähre bei freier Bestäubung: 52,8
  Kornzahl der Ähre im Isolator: 0,0
  Prozentsatz der Sterilität: 100,0%
  Prozentsatz des Ansetzens der Körner bei freier Bestäubung: 96,7%

## CC1C=CCCC1C(=O)O (stereo not drawn) [Beispiel 78, Kaliumsalz der 2-Methyl-3-zyklohexen-karbonsäure]
[4]
  Kornzahl der Ähre bei freier Bestäubung: 52,2
  Kornzahl der Ähre im Isolator: 0,1
  Prozentsatz der Sterilität: 99,8%
  Prozentsatz des Ansetzens der Körner bei freier Bestäubung: 95,6%

## CC1C=CCCC1C(=O)O (stereo not drawn) [Beispiel 79, Ammoniumsalz der 2-Methyl-3-zyklohexenkarbon-säure]
[4]
  Kornzahl der Ähre bei freier Bestäubung: 51,7
  Kornzahl der Ähre im Isolator: 0,0
  Prozentsatz der Sterilität: 100,0%
  Prozentsatz des Ansetzens der Körner bei freier Bestäubung: 95,0%

## COC(=O)C1CCC=CC1C (stereo not drawn) [Beispiel 80, 2-Methyl-3-zyklohexenkarbonsäuremethylester]
[4]
  Kornzahl der Ähre bei freier Bestäubung: 50,2
  Kornzahl der Ähre im Isolator: 0,0
  Prozentsatz der Sterilität: 100,0%
  Prozentsatz des Ansetzens der Körner bei freier Bestäubung: 91,9%

## C=CCOC(=O)c1ccccc1C(=O)OCC=C [Beispiel 81, Phthalsaurediallylester]
[4]
  Kornzahl der Ähre bei freier Bestäubung: 53,5
  Kornzahl der Ähre im Isolator: 0,8
  Prozentsatz der Sterilität: 98,4%
  Prozentsatz des Ansetzens der Körner bei freier Bestäubung: 97,9%

## CC1C=CCCC1C(=O)O.N (stereo not drawn) [Beispiel 97, Ammoniumsalz der 2-Methyl-3-zyklo-nexenkarbonsäure]
[5]
  Kornzahl der Rispe bei freier Bestäubung: 121,6
  Kornzahl der Rispe im Isolator: 0,0
  Prozentsatz der Sterilität: 100,0%
  Prozentsatz des Ansetzens der Körner bei freier Bestäubung: 82,9%

## CCCOC(=O)c1ccccc1C(=O)OCCC [Beispiel 98, Phthalsäuredipropylester]
[5]
  Kornzahl der Rispe bei freier Bestäubung: 130,7
  Kornzahl der Rispe im Isolator: 0,0
  Prozentsatz der Sterilität: 100,0%
  Prozentsatz des Ansetzens der Körner bei freier Bestäubung: 89,1%

## CCCCOC(=O)c1ccccc1C(=O)OCCCC [Beispiel 99, Phthalsäuredibutylester]
[5]
  Kornzahl der Rispe bei freier Bestäubung: 127,9
  Kornzahl der Rispe im Isolator: 0,0
  Prozentsatz der Sterilität: 100,0%
  Prozentsatz des Ansetzens der Körner bei freier Bestäubung: 87,9%

## CC(C)COC(=O)c1ccccc1C(=O)OCC(C)C [Beispiel 100, Phthalsäurediisobutylester]
[5]
  Kornzahl der Rispe bei freier Bestäubung: 110,4
  Kornzahl der Rispe im Isolator: 0,0
  Prozentsatz der Sterilität: 100,0%
  Prozentsatz des Ansetzens der Körner bei freier Bestäubung: 75,3%

## COC(=O)C1CCC=CC1C (stereo not drawn) [Beispiel 101, 2-Methyl-3-zyklo-hexenkarbonsäuremethylester]
[5]
  Kornzahl der Rispe bei freier Bestäubung: 127,8
  Kornzahl der Rispe im Isolator: 0,0
  Prozentsatz der Sterilität: 100,0%
  Prozentsatz des Ansetzens der Körner bei freier Bestäubung: 87,1%

## CCCCCCOC(=O)c1ccccc1C(=O)OCCCCCC [Beispiel 102, Phthalsäuredihexylester]
[5]
  Kornzahl der Rispe bei freier Bestäubung: 136,6
  Kornzahl der Rispe im Isolator: 0,0
  Prozentsatz der Sterilität: 100,0%
  Prozentsatz des Ansetzens der Körner bei freier Bestäubung: 93,1%
